Values quoted from earlier work as cited in patent US20080096915A1, “COMPOSITIONS FOR THE TREATMENT OF METABOLIC DISORDERS” (Greenberg Traurig LLP, priority 2005, published 2008).

How the values were obtained:
hypertensives = test system: hypertensives; parameters: dose or concentration left out as unconfirmed; settings: 1050 hypertensives, for three months, dose doubled in one third; decreased from 176/104
[1] = test system: patients whose blood pressure had not been normalized; settings: cicletanine 50 and 100 mg per day added to calcium channel blockers, beta blockers or ACE inhibitors
patients = settings: 150-200 mg/day cicletanine, over 12 months; fell from 128
[2] = test system: Dahl salt-sensitive rats with salt-induced hypertension
sulfonylurea receptor = sulfonylurea receptor (Homo sapiens, UniProt Q09428)
Sequence of sulfonylurea receptor (Q09428 whole entry): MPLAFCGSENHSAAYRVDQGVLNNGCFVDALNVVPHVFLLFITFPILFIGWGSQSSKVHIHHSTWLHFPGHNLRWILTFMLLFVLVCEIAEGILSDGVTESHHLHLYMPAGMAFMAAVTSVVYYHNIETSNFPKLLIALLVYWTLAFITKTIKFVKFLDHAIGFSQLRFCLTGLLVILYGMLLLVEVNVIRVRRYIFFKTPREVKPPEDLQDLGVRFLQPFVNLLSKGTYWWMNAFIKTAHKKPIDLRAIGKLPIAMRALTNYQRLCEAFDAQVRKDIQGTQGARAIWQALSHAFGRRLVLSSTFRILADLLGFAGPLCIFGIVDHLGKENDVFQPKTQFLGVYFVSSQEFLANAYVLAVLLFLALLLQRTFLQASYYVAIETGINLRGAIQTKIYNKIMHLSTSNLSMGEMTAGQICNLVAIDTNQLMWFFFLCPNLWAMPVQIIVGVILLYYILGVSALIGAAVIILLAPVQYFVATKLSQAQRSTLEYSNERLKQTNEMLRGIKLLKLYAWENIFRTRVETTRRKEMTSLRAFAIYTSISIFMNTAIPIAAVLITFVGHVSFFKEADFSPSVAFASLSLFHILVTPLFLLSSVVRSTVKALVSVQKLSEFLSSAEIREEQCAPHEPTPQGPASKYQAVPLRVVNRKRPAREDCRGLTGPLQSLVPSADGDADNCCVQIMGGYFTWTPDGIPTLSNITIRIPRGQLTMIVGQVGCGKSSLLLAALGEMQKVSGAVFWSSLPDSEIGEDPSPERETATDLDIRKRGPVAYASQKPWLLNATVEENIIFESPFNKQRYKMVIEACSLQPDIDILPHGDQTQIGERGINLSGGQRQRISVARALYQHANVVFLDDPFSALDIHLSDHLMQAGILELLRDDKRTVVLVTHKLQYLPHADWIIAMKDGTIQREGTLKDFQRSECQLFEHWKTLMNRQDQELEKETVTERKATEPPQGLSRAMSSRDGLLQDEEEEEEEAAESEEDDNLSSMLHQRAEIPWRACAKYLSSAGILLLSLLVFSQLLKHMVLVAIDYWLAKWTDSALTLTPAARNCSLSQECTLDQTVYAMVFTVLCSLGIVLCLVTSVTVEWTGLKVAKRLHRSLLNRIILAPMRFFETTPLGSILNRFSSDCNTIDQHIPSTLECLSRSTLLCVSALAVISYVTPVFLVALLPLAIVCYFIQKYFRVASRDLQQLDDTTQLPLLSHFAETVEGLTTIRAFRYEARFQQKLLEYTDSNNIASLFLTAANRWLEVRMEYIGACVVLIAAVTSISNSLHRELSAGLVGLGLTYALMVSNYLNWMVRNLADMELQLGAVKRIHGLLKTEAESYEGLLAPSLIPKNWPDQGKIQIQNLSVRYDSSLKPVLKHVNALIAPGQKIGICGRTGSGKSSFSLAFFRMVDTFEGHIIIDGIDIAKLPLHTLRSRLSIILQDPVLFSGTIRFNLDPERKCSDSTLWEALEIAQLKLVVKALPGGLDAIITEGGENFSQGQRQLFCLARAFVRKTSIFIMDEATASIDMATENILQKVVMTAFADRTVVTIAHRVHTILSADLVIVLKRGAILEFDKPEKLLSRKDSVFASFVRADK
Sequence of sulfonylurea receptor (Q14654 whole entry partner): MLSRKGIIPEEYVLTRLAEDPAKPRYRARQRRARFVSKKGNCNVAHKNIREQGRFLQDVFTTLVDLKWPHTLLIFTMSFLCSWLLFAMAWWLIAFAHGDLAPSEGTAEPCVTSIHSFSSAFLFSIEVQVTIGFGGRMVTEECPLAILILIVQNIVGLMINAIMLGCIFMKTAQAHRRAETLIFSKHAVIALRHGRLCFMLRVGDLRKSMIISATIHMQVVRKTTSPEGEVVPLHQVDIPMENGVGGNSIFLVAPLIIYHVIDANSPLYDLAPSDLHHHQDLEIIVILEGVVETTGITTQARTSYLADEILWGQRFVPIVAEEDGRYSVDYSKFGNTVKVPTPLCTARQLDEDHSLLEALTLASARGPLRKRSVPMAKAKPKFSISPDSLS

[3] = in vivo

Cc1ncc2c(c1O)COC2c1ccc(Cl)cc1 (racemic) [cicletanine, +−3-(4-chlorophenyl)-1,3-dihydro-6-methylfuro-[3,4-c]pyridin-7-ol]
blood pressure after treatment (hypertensives): 151/86 | patients whose blood pressure was normalized [1]: 50 % of patients | peak insulin response to tolbutamide, following cicletanine administration (healthy subjects; 10 healthy subjects, single intravenous tolbutamide after 7 days of cicletanine 100 mg per day): 17.4 mU/L | hypoglycemic effect of tolbutamide following cicletanine administration (healthy subjects; after 7 days of cicletanine 100 mg per day): did not change | average triglyceride level after treatment (patients): 104 mg/dL | high-density lipoprotein (HDL) cholesterol [2]: increased | low-density lipoprotein (LDL) cholesterol [2]: significantly decreased

Cc1cnc(C(=O)NCCc2ccc(S(=O)(=O)NC(=O)NC3CCCCC3)cc2)cn1 [glipizide]
concentration range that saturates receptors (sulfonylurea receptor): low nanomolar

COc1ccc(Cl)cc1C(=O)NCCc1ccc(S(=O)(=O)NC(=O)NC2CCCCC2)cc1 [glyburide]
plasma half-life [3]: 4 to 11 h

CCCCNC(=O)NS(=O)(=O)c1ccc(C)cc1 [tolbutamide]
peak insulin response to tolbutamide, before cicletanine administration (healthy subjects; 10 healthy subjects, single intravenous dose of tolbutamide alone): 29.2 mU/L
